What was measured:
[1] = test system: TGFβ1-induced hHSC; test: α-SMA ELISA in TGFβ1-induced hHSC; assay type: cell-based, human
Procedure: (§1) The human primary hepatic stellate cells (hHSC) (Innoprot) were cultured under standard conditions, as described above.
The level of α-SMA was measured using a Sandwich ELISA. Briefly, the wells of an ELISA plate were first coated with the capture antibody (mouse monoclonal anti-ACTA2, Abnova) at 4° C. overnight. […] The cell lysates were transferred into the wells for binding to the capture antibody for a period of 2 h at room temperature. After the washing procedure, the detection antibody (biotinylated mouse monoclonal anti-ACTA2, Abnova) was added for 2 hours at room temperature followed by 3 washes. […] Upon oxidation, TMB forms a water-soluble blue reaction product that becomes yellow with addition of sulfuric acid (solution stop), enabling accurate measurement of the intensity at 450 nm using a spectrophotometer. The developed color is directly proportional to the amount of α-SMA present in the lysate.
as §1

[2] = test system: CDFF-fed mice; test: mouse fibrosing-NASH model, CDFF diet (8 weeks); assay type: in vivo, C57Bl/6J mice
Procedure: The preventive effects of the combinations of elafibranor with selonsertib, GKT-831 or GS-0976 were assessed in mice fed a choline-deficient, […] diet (CDAA) supplemented with 2% cholesterol, 30% milk fat diet and high fructose corn syrup 55 (55% fructose/45% glucose for a final concentration of 42 g/L) in drinking water (Mells et al J Nutr Biochem 2015) (CDFF diet). 5-6 weeks old male C57Bl/6J mice were fed a control (CSAA) diet (n=4), CDFF (n=12), or CDFF supplemented with elafibranor (1 or 3 mg/kg/day), selonsertib (30 mg/kg/day), GKT-831 ([…]) alone or in combination (n=8 per group) for 8 weeks.
The body weight, the food and water intake were monitored twice per week. On the last day of treatment, plasma samples were obtained from retro-orbital blood sampling and mice were sacrificed after a 6 h-fasting period. The liver was rapidly excised for biochemical and histological analyses. […]
A technician blinded to the source of each liver specimen performed histological examinations. […] Briefly, steatosis, lobular inflammation and hepatocyte ballooning were scored. […]
(§2) Using Quant Center software (3D Histech, including Pattern Quant and Histo Quant modules), collagen-stained areas were quantified. […] The fibrosis area was then expressed as the percentage of the collagen surface to the whole tissue per animal.
(§3) The hepatic collagen content was determined using the appropriate QuickZyme kit (Total collagen assay, cat # QZB-totcol2). […]
(§4) Complete hydrolysis of tissue samples in 6M HCl at 95° C. is required before dosing the hydroxyproline. The assay results in the generation of a chromogen with a maximum absorbance at 570 nm. Results are expressed as mg of collagen/g of liver. […]
The plasmatic concentration of PIIINP was determined using an ELISA assay from Cloud-Clone Corp (cat # SEA573Mu), according to the manufacturer's instructions. […] The enzyme-substrate reaction is terminated by the addition of sulphuric acid solution and the color change is measured spectrophotometrically at a wavelength of 450 nm±10 nm. […]

[3] = test system: rats fed a CDAA+1% cholesterol diet; test: chronic CDAA+1% cholesterol fibrosing NASH-model of rats (12 weeks); assay type: in vivo, Wistar rats; details: liver; Percentage over the untreated CDAA + 1% cholesterol rats; GFT505 3 mg/kg/d, OCA 10 mg/kg/d
Procedure: Evaluation of Elafibranor, OCA and the combination Elafibranor+OCA in a chronic CDAA+1% cholesterol model (12 weeks).
The preventive effects of Elafibranor alone, OCA alone and the combination of both were assessed in a fibrosing NASH-model of rats fed a CDAA+1% cholesterol diet. 150-175 g male Wistar rats were fed a control (CSAA) diet, CDAA+1% cholesterol diet, or CDAA+1% cholesterol diet supplemented with Elafibranor 1, 3 and 10 mg/kg/day, OCA 10 and 30 mg/kg/day or combined drugs (Elafibranor 1, 3 and 10 mg/kg/day combined to OCA 10 mg/kg/day) for 12 weeks.
The body weight and the food intake were monitored twice per week. On the last day of treatment, rats were sacrificed after a 6 h fasting period. The liver was rapidly excised for biochemical and histological studies.
A technician blinded to the source of each liver specimen performed histological examinations. Virtual slides were generated using the Pannoramic 250 scanner from 3D Histech. […] Briefly, steatosis, lobular inflammation and hepatocytes ballooning were scored. […]
as §2, §3, §4
Quantitative PCR was then carried out using the CFX96 TOUCH Real-Time PCR Detection System (Biorad). […]
Expression levels were normalized using the expression of RPLP0 gene as a housekeeping gene of reference in samples. […] Expression levels were determined using the standard curve equation for both the housekeeping gene and the target gene (taking into account the specific PCR efficiency of each target gene).

CCCCOCCOc1ccc(-c2ccc3c(c2)/C=C(/C(=O)Nc2ccc([S@@+]([O-])Cc4cncn4CCC)cc2)CCCN3CC(C)C)cc1 [CVC, Cenicriviroc]
α-SMA inhibition, single agent ([1]; 5 μM alone, TGFβ1-induced hHSC): does not show any antifibrotic activity | antifibrotic effect (α-SMA), single agent, in words ([1]; TGFβ1-activated hHSC, all doses): did not show a significant effect at all doses

Cc1cc(F)c(C(=O)Nc2cccc(-c3nncn3C(C)C)n2)cc1-n1cnc(C2CC2)c1 [Selonsertib, selonsertib]
hepatic fibrosis (histology, hepatic collagen content, release of PIIINP and TIMP-1) ([2]; 8 weeks, elafibranor 3 mg/kg/day, selonsertib 30 mg/kg/day): improved hepatic fibrosis

CC[C@H]1[C@@H](O)[C@@H]2[C@H](CC[C@]3(C)[C@@H]([C@H](C)CCC(=O)O)CC[C@@H]23)[C@@]2(C)CC[C@@H](O)C[C@@H]12 [OCA, obeticholic acid]
CCR5 mRNA level (marker of inflammation) [3]: 81% ± 28% | TGFβ1 mRNA level [3]: 110% ± 23% | TIMP1 mRNA level [3]: 110% ± 43%

CN(C)c1cccc(-c2c3c(=O)n(-c4ccccc4Cl)[nH]c3cc(=O)n2C)c1 [GKT-831, 2-(2-chlorophenyl)-4-[3-(dimethylamino)phenyl]-5-methyl-1H-pyrazolo[4,3-c]pyridine-3,6(2H,5H)-dione]
effect on NASH and fibrosis (inflammatory infiltrates, NAFLD activity score, fibrosis) ([2]; GKT-831 60 mg/kg/day, elafibranor 1 mg/kg/day): no beneficial effect

COc1ccccc1[C@H](Cn1c(=O)n(C(C)(C)C(=O)O)c(=O)c2c(C)c(-c3ncco3)sc21)OC1CCOCC1 [GS-0976]
effect on liver fat and body weight ([2]; GS-0976 30 mg/kg/day alone): mild beneficial effect
